We go through three compounds from BindingDB's records for doi:10.1021/jf103164r (Rutgers University, 2011).

This assay addresses T1, Dihydrofolate reductase (Homo sapiens, UniProt P00374).
T1 sequence (P00374 whole entry): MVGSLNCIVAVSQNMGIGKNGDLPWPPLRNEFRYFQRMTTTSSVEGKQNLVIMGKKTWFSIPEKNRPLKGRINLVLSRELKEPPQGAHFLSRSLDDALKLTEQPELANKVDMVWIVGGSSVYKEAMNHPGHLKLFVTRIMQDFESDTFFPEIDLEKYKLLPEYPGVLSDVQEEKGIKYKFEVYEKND
Kind of assay: Inhibition of human DHFR.

Compound `Nc1nnc(CCC(=O)c2cccs2)s1` [3-(5-Amino-[1,3,4]thiadiazol-2-yl)-1-(thiophen-2-yl)propan-1-one] gave an IC50 of 300 µM.
The compound `CS(=O)(=O)c1ccc2nc(N)sc2c1` [6-(methylsulfonyl)benzo[d]thiazol-2-amine] gave an IC50 of 1040 µM.
`Nc1nc2ccc(OC(F)(F)F)cc2s1` [SMR000058231] gave an IC50 of 312 µM.

Usually IC50 stands for the concentration at which inhibition is half-maximal. Read a high IC50 as a need for much substance.
